Data: US10758512B2 (KOREA INSTITUTE OF SCIENCE AND TECHNOLOGY, priority 2016, dated 2020)

Legend:
[1] = test system: dihydrotestosterone production in prostate cell DU145; experiment: Dihydrotestosterone production-inhibitory activity in prostate cells (LC-MS/MS); assay type: cell-based, human; settings: 48 hours
Procedure: CWR-22Rv1, LNCaP, DU145, and PC-3 cells which are human prostate cancer cell lines were cultured and maintained in an RPMI medium (Roswell Park Memorial Institute medium) supplemented with 10% heat-inactivated fetal bovine serum (FBS), 10 U/mL penicillin, and 100 μg/mL streptomycin under conditions of 5% carbon dioxide and 37° C. The internal standard compound was dissolved in dimethyl sulfoxide at a concentration of 10 μM, and 1 μL thereof was added to 150 μL of cell culture, and treated to a cartridge to perform sample pretreatment. […] Thereafter, re-solvation was performed by using 50% aqueous methanol, and products were kept frozen at −20° C. Mass spectrometry of the stored samples was performed by using an AB SCIEX API 4000 QTRAP tandem quadrupole mass spectrometer. HPLC system used herein was Agilent 1200 pump, and solvent A was water/acetonitrile (95:5 v/v, 0.1% formic acid), and solvent B was acetonitrile/water (95:5 v/v, 0.1% formic acid). For chromatography separation, a linear gradient from 40% B solvent to 100% B solvent in 8 minutes was used. An analysis column used herein was an XTerra MS C18 column (2.1 mm×150 mm, 3.5 μm) of Waters corporation, and analysis was performed while maintaining temperature at 25° C. and a flow rate of 0.2 mL/min. […]

DU145 cells = experiment: Cell viability of human prostate cell line (EZCytox); assay type: cell-based; settings: 48 hours, relative to DMSO control (FIG. 4)
Procedure: With regard to the human prostate cancer cell line DU145 cultured and maintained in Experimental Example 1, the culture medium and prostate cell culture were mixed, and 1×10^4 cells were seeded in a 96-well plate, and then cultured for 24 hours under conditions of 5% carbon dioxide and 37° C.
After being stabilized, the cells were treated with only 0.2% dimethyl sulfoxide as a control group, treated with testosterone (100 ng/mL or 200 ng/mL) alone, or treated with testosterone and 10 μM finasteride as a positive control, or testosterone and 1 μM, 10 μM, or 20 μM fucoxanthin, and then cultured for 48 hours.
Thereafter, the media were collected for LC-MS/MS analysis, and then cell viability of prostate cells was measured in order to examine whether treatment of the compound influences growth of the prostate cells. The cell viability was determined by measuring absorbance at 450 nm after adding an EZCytox reagent (Daeil Lab Service, Korea) and culturing for 1-4 hours under conditions of 5% carbon dioxide and 37° C. The cell viability was calculated as a percentage relative to cell viability of the control group treated with dimethyl sulfoxide (DMSO) only.

| Structure (SMILES) | dihydrotestosterone production ([1]; DU145, testosterone 100 ng/mL plus finasteride 10 μM, vs testosterone alone (FIG. 3)) | cell viability of prostate cells (DU145 cells; DU145, testosterone plus finasteride 10 μM) | dihydrotestosterone production ([1]; DU145, testosterone 100 ng/mL plus fucoxanthin 1 μM, 10 μM, 20 μM, vs testosterone alone, inhibition increased with concentration (FIG. 3)) | cell viability of prostate cells (DU145 cells; DU145, testosterone plus fucoxanthin 1 μM, 10 μM or 20 μM) |
| --- | --- | --- | --- | --- |
| CC(C)(C)NC(=O)[C@H]1CC[C@H]2[C@@H]3CC[C@H]4NC(=O)C=C[C@]4(C)[C@H]3CC[C@]12C [finasteride] | remarkably inhibited | did not influence cell viability |  |  |
| CC(=O)O[C@H]1CC(C)(C)C(=C=C/C(C)=C/C=C/C(C)=C/C=C/C=C(C)/C=C/C=C(\C)C(=O)C[C@@]23O[C@]2(C)C[C@@H](O)CC3(C)C)[C@](C)(O)C1 [fucoxanthin] |  |  | remarkably inhibited | did not influence cell viability |
